Experimental data reported in patent publication US20050085554A1, “Methods of treating disease through the administration of a manzamine analog or derivative” (priority 2003, published 2005).
Converted amounts (≈) assume the structure as drawn.

How the values were obtained:
[1] = tested on: Mycobacterium tuberculosis H37Rv; test: In vitro antimycobacterial activity (Microplate Alamar Blue Assay), MIC; assay type: cell-based; conditions: for MIC against Mycobacterium tuberculosis (Mtb): rifampin = positive control; for Mycobacterium Tuberculosis (H37Rv) MIC: T4
HIV-1LAV = test: Anti-HIV-1 activity in PBM cells; assay type: cell-based, human immunodeficiency virus (HIV-1)
Protocol: Anti-HIV-1 activity was determined in PBM cells as described previously. See, Stock solutions (20 or 40 mM) of the compounds were prepared in sterile DMSO and then diluted to the desired concentration in growth medium. Cells were infected with the prototype HIV-1LAV at a multiplicity of infection of 0.1. Details on the infection of cells and assessment of antiviral effects was described previously. See, Schinazi, R. F.; McMillan, A.; Cannon, D.; Mathis, R.; Lloyd, R. M.; Peck, A.; Sommadossi, J.-P.; Clair, M. S.; Wilson, J.; Furman, P. A.; Painter G.; Choi, W.-B.; Liotta, D. C. Antimicrob. Agents Chemother. 1992, 36, 2423-2431 and Schinazi, R. F.; Sommadossi, J.-P.; Saalmann, V.; Cannon, D. L.; Xie, M.-Y.; Hart, G. C.; Smith, G. A.; Hahn, E. F. Antimicrob. Agents Chemother. 1990, 34, 1061-1067.

Candida albicans = test: Antifungal activity against Candida albicans; assay type: cell-based
[2] = tested on: human lung carcinoma A-549
[3] = tested on: human colon carcinoma H-116
Cryptococcus neoformans = test: Antifungal activity against Cryptococcus neoformans; assay type: cell-based; conditions: for Antifungal IC50 C. neoformans: T5, NA = not active
Leishmania donovani = test: Antileishmanial activity in vitro; assay type: cell-based
Aspergillus fumigatus = test: Antifungal activity against Aspergillus fumigatus; assay type: cell-based; conditions: T6, footnote a: the lowest concentration that significantly inhibits growth
[4] = tested on: Plasmodium falciparum (D6 clone); test: Antimalarial activity in vitro, D6 clone; assay type: cell-based
[5] = tested on: P. falciparum (chlorine-resistant W2 clone); test: Antimalarial activity in vitro, W2 clone; assay type: cell-based, Plasmodium falciparum
Staphylococcus aureus = test: Antibacterial activity against S. aureus; assay type: cell-based; conditions: for Antibacterial IC50 S. aureus: T5, NA = not active
[6] = tested on: methicillin-resistant Staphylococcus aureus; test: Antibacterial activity against MRS; assay type: cell-based; conditions: for Antibacterial IC50 MRS: T5, NA = not active
[7] = tested on: Mycobacterium intracellulare; test: Activity against M. intracellulare; assay type: cell-based; conditions: for IC50 M. intracellulare: T5, NA = not active
Vero cells = test: In vitro cytotoxicity to mammalian cells (Vero)
[8] = T4, NC = No Cytotoxicity (concentration: 4760 ng/ml)

CC(=O)C[C@H]1C[C@H]2[C@H]([C@@H]3c4[nH]c5ccccc5c4CCN13)[C@H](O)C13CC/C=C\CCCCN1CC21C2CCCCCCCN2[C@H]13 (some centres unmarked) [Manadomanzamine A]
MIC against Mycobacterium tuberculosis (Mtb) [1]: 1.86 µg/mL (≈ 3.04 µM) | EC50 against human immunodeficiency virus (HIV-1) (HIV-1LAV): 6.96 µg/mL (≈ 11.4 µM) | IC50 against the fungus Candida albicans (Candida albicans): 20 µg/mL (≈ 32.7 µM) | IC50 against human lung carcinoma A-549 [2]: 2.5 µg/mL (≈ 4.09 µM) | IC50 against human colon carcinoma H-116 [3]: 5.0 µg/mL (≈ 8.18 µM)

C[C@@H]1[C@H](O)[C@@H](C)/C=C/C=C/C=C/C=C/C=C/C=C/C=C/[C@H](O[C@@H]2O[C@H](C)[C@@H](O)[C@H](N)[C@@H]2O)C[C@@H]2O[C@](O)(C[C@@H](O)C[C@@H](O)[C@H](O)CC[C@@H](O)C[C@@H](O)CC(=O)O[C@H]1C)C[C@H](O)[C@H]2C(=O)O [Amphotericin B, reference compound]
Cryptococcus neoformans IC50 (Cryptococcus neoformans): 0.25 µg/mL | Antifungal IC50 C. neoformans (Cryptococcus neoformans): 0.15 µg/mL | Cryptococcus neoformans MIC (Cryptococcus neoformans; lowest concentration that allows no detectable growth): 0.63 µg/mL | Candida albicans IC50 (Candida albicans; T6): 0.10 µg/mL | Candida albicans MIC (Candida albicans; T6, MIC: lowest concentration that allows no detectable growth): 0.63 µg/mL | Leishmania donovani IC 50 (Leishmania donovani; T4): 0.06 µg/mL | Leishmania donovani IC 90 (Leishmania donovani; T4): 0.15 µg/mL | Aspergillus fumigatus MIC (Aspergillus fumigatus): 0.63^a μg/mL

Manzamine A N-oxide
Mycobacterium Tuberculosis (H37Rv) MIC [1]: 3.9 µg/mL | Antifungal IC50 C. neoformans (Cryptococcus neoformans): 1.0 µg/mL | Plasmodium falciparum (D6 clone) IC 50 ([4]; T4, NA = not active): 0.011 µg/mL | P. falciparum (chlorine-resistant W2 clone) IC 50 ([5]; T4, NA = not active): 0.013 µg/mL | Leishmania donovani IC 50 (Leishmania donovani; T4): 1.1 µg/mL | Leishmania donovani IC 90 (Leishmania donovani; T4): 3.8 µg/mL | Antibacterial IC50 S. aureus (Staphylococcus aureus): 0.5 µg/mL | Antibacterial IC50 MRS [6]: 0.35 µg/mL | IC50 M. intracellulare [7]: 0.2 µg/mL | Cytotoxicity (Vero) (Vero cells; [8]): 420 ng/mL

xestomanzamine A
Anti-TB MIC ([1]; T1, no unit in table): 14.1 µg/mL | EC50 against human immunodeficiency virus (HIV-1) (HIV-1LAV): 11.2 µg/mL | IC50 against the fungus Cryptococcus neoformans (Cryptococcus neoformans): 6.0 µg/mL | Cytotoxicity IC50 A-594 [2]: >5 µg/mL | Cytotoxicity IC50 H-116 [3]: >5 µg/mL

C1=C/[C@@H]2[C@H]3CCCC[C@@H]3C[C@@H]2NCCCNC2C[C@H]3CCCC[C@@H]3[C@H]2/C=C/1 (single isomer, unassigned; (-)) [Papuamine, (−)-papuamine]
MIC ([1]; Mycobacterium tuberculosis, H37RV, T6, read-out: Mycobacterium tuberculosis MIC): 0.4 µg/mL (≈ 1.09 µM) | MIC (Cryptococcus neoformans; Cryptococcus neoformans, lowest concentration that allows no detectable growth): 0.63 µg/mL (≈ 1.71 µM) | IC50 (Cryptococcus neoformans; Cryptococcus neoformans, read-out: Cryptococcus neoformans IC50): 0.35 µg/mL (≈ 0.95 µM) | IC50 (Candida albicans; Candida albicans, T6): 1.5 µg/mL (≈ 4.07 µM) | MIC (Candida albicans; Candida albicans, T6, MIC: lowest concentration that allows no detectable growth): 5 µg/mL (≈ 13.6 µM) | IC50 ([4]; Plasmodium falciparum, D6, T6): 0.15 µg/mL (≈ 0.407 µM) | IC50 ([5]; Plasmodium falciparum, W2, T6, read-out: P. falciparum (W2 clone) IC50): 0.34 µg/mL (≈ 0.922 µM) | MIC (Staphylococcus aureus; Staphylococcus aureus, T6): 5 µg/mL (≈ 13.6 µM) | IC50 (Staphylococcus aureus; Staphylococcus aureus, T6, read-out: Staphylococcus aureus IC50): 2.5 µg/mL (≈ 6.78 µM) | MIC ([6]; Staphylococcus aureus, T6): 5 µg/mL (≈ 13.6 µM) | IC50 ([6]; T6, MRS: methicillin-resistant Staphylococcus aureus, read-out: MRS IC50): 2.5 µg/mL (≈ 6.78 µM) | IC50 ([7]; Mycobacterium intracellulare, T6, read-out: Mycobacterium intracellulare IC50): 4 µg/mL (≈ 10.9 µM) | MIC (Aspergillus fumigatus; Aspergillus fumigatus): 1.25 µg/mL (≈ 3.39 µM)

CC(=O)C[C@@H]1C[C@H]2[C@H]([C@@H]3c4[nH]c5ccccc5c4CCN13)[C@H](O)C13CC/C=C\CCCCN1CC21C2CCCCCCCN2[C@H]13 (some centres unmarked) [Manadomanzamine B]
MIC against Mycobacterium tuberculosis (Mtb) [1]: 1.53 µg/mL (≈ 2.5 µM) | EC50 against human immunodeficiency virus (HIV-1) (HIV-1LAV): 16.5 µg/mL (≈ 27 µM) | IC50 against the fungus Cryptococcus neoformans (Cryptococcus neoformans): 3.5 µg/mL (≈ 5.73 µM) | IC50 against human colon carcinoma H-116 [3]: 5.0 µg/mL (≈ 8.18 µM)

O[C@]12C=C(c3nccc4c3[nH]c3ccccc34)[C@@H]3CCN(CCCC/C=C\CC1)C[C@@]31C[C@@H]3/C=C\CCCCN3[C@H]12 [Manzamine A]
Mycobacterium Tuberculosis (H37Rv) MIC [1]: 1.53 µg/mL | EC50 (HIV-1LAV; T5): 4.2 µM | Antifungal IC50 C. neoformans (Cryptococcus neoformans): 3.0 µg/mL | Plasmodium falciparum (D6 clone) IC 50 ([4]; T4, NA = not active): 0.0045 µg/mL | Plasmodium falciparum (D6 clone) IC 50 ([4]; T7): 0.0045 µg/mL | P. falciparum (chlorine-resistant W2 clone) IC 50 ([5]; T4, NA = not active): 0.008 µg/mL | P. falciparum (chlorine-resistant W2 clone) IC 50 ([5]; T7): 0.008 µg/mL | Leishmania donovani IC 50 (Leishmania donovani; T4): 0.9 µg/mL | Leishmania donovani IC 90 (Leishmania donovani; T4): 1.8 µg/mL | Leishmania donovani IC 50 (Leishmania donovani; T7): 0.9 µg/mL | Leishmania donovani IC 90 (Leishmania donovani; T7): 1.8 µg/mL | Antibacterial IC50 S. aureus (Staphylococcus aureus): 0.5 µg/mL | Antibacterial IC50 MRS [6]: 0.7 µg/mL | IC50 M. intracellulare [7]: 0.35 µg/mL (≈ 0.638 µM) | M. intracellulare IC50 ([7]; T7, first value of a cell '2.0/5.0'): 1.53 µg/mL | Cytotoxicity (Vero) (Vero cells; [8]): 1200 ng/mL | Cytotoxicity (Vero) (Vero cells; T7, NC not defined in this table): 1200 ng/mL
